Measurements taken from patent US9173425B2, “High-potency sweetener composition with vitamin and compositions sweetened therewith” (THE COCA-COLA COMPANY, priority 2005, dated 2015).

Assays:
[1] = tested on: panel of experts in the sensory evaluation of foods and beverages; experiment: Sensory evaluation of sweetness linger and sugar-like taste by expert panel; type: in vivo, human; design: key: 0=no sweetness linger; 1=very slight sweetness linger; 2=slight sweetness linger; 3=moderate sweetness linger; 4=moderately high sweetness linger; 5=high sweetness linger; conditions: for Sweetness Linger rating defined by protocol: scale anchors: sucrose, 500 ppm of REBA control sample
Method: Sensory evaluation of the samples prepared in Example Set G was carried out under the following protocol, similar to that described hereinabove. In this test protocol, none of the samples were swallowed. All samples were expectorated and the mouth was rinsed with water after the tasting. Immediately upon sensing maximal sweetness, the sample was expectorated, the mouth was rinsed with water and the rate of sweetness decay (“Sweetness Linger”) was measured, where attention was focused on the sweetness 3-4 min after the water rinse. After sample tasting was complete, a salty oyster cracker was chewed followed by a water rinse, and at least 5 minutes followed before tasting the next sample. The sweetness linger was rated by a panel of experts in the sensory evaluation of foods and beverages using the following scale: 0=no sweetness linger, 1=very slight sweetness linger, 2=slight sweetness linger, 3=moderate sweetness linger, 4=moderately high sweetness linger, 5=high sweetness linger.
The “Sweetness Linger” rating for sucrose observed by this protocol is defined as 0. The Sweetness Linger of a 500 ppm of REBA control sample is defined as 5. Experimental samples were tasted by the same protocol, always allowing sufficient time between samples to ensure re-equilibration of the sensory system. Re-tasting of control samples during the course of the experiment was allowed and encouraged.
The comparison taste test was performed between two controls and addition of sweet taste improving additive on the onset and/or sweetness linger.
Sweet taste improving compositions were combined with a REBA solution to determine their effect on sweetness linger. Screening of the initial sample, or further dilutions, allowed identification of concentrations which were just above-threshold, herein defined as “near-threshold concentrations.” The near-threshold additive concentrations, a 6- to 100-fold higher additive concentration (depending on the off-taste intensity), and a mid-level additive concentration (halfway between the near-threshold and higher additive concentration) were evaluated to determine the effect on sweetness linger of a REBA solution. […]
Sensory evaluation using the protocol described in Example Set G then was used to evaluate the sweetness linger of the REBA solutions.

[2] = Rate of dissolution of rebaudioside A polymorphs in H2O at 25° C.; type: physicochemical; conditions: result in words
Excerpt: (§1) The purification of rebaudioside A by crystallization as described above results in the formation of at least four different polymorphs: Form 1: a rebaudioside A hydrate; Form 2: an anhydrous rebaudioside A; Form 3: a rebaudioside A solvate; and Form 4: an amorphous rebaudioside A. The aqueous organic solution and temperature of the purification process influence the resulting polymorphs in the substantially pure rebaudioside A composition. FIGS. 1-5 are exemplary powder x-ray diffraction (XRPD) scans of polymorphs Form I (hydrate), Form 2 (anhydrate), Form 3A (methanol solvate), Form 3B (ethanol solvate), and Form 4 (amorphous), respectively.

[3] = Alcohol content of rebaudioside A polymorphs; type: physicochemical
Excerpt: as §1

[4] = Moisture content of rebaudioside A polymorphs; type: physicochemical
Excerpt: as §1

[5] = Sweetness level as sucrose equivalent
[6] = type: physicochemical
Method: A solution of rebaudioside A (>97% pure by HPLC) was prepared in double distilled water (12.5 gm in 50 mL, 25% concentration) by stirring the mixture at 40° C. for 5 minutes. An amorphous rebaudioside A polymorph was formed by immediately using the clear solution for spray drying with the Lab-Plant spray drier SD-04 instrument (Lab-Plant Ltd., West Yorkshire, U.K.). The solution was fed through the feed pump into the nozzle atomizer which atomized it into a spray of droplets with the help of a constant flow of nitrogen/air. […] This dry powder (11-12 g, H2O 6.74%) was discharged continuously from the drying chamber and was collected in a bottle.

Row | Molecule | Sweetness Linger rating defined by protocol [1] | Rate of dissolution in H2O at 25° C. [2] | Alcohol content [3] | Moisture content [4] [%] | also measured
1 | OC[C@H]1O[C@@](CO)(O[C@H]2O[C@H](CO)[C@@H](O)[C@H](O)[C@H]2O)[C@@H](O)[C@@H]1O [sugar, sucrose] | 0 |  |  |  | 
2 | rebaudioside A [Form 1] |  | Very low | <0.5% | >5 | 
3 | rebaudioside A | 5 |  |  |  | sweetness linger rating ([1]; control: 400 ppm REBA in citric acid/potassium citrate composition, no additive): 5; sweetness linger rating ([1]; control: 500 ppm REBA in carbon-treated water, phosphoric acid (75%) pH 2.4-2.5): 5; sucrose equivalence of sweetness ([5]; 180 ppm rebaudioside A in 1:1 diluted beverage): 5 % sucrose; sucrose equivalence of sweetness ([5]; 400 ppm REBA in citric acid/potassium citrate composition): 8 g sucrose
4 | rebaudioside A [Form 2] |  | Intermediate | <1% | <1 | 
5 | rebaudioside A [Form 4] |  | High |  | 6.74 | solubility in water at room temperature [6]: > 35.0%
6 | rebaudioside A [Form 3] |  | High | 1-3% | <3 | 
